Laboratory results taken from the supplement of paper PMC10307832.

Tests used:
Test in all cases: relative viability (nuclei count vs DMSO), 5 days (fraction); higher = more cells survive
COR-L 105 = system: COR-L 105
Outline: (§1)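 Each reported value is a median over duplicate plates. It expresses relative viability: treated-well nuclei count divided by vehicle-well nuclei count. Lung cancer cell lines in 1536-well plates were dosed by pin tool a day after seeding, alone with one drug or with a fixed anchor-drug dose plus five library-drug doses (not always all listed) in √10 steps, and nuclei were counted after 5 days.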

NCI-H1975 = system: NCI-H1975
Outline: as §1

CAL-12T = system: CAL-12T
Outline: as §1

NCI-H1563 = system: NCI-H1563
Outline: as §1

NCI-H2405 = system: NCI-H2405
Outline: as §1

NCI-H1395 = system: NCI-H1395
Outline: as §1

HCC-15 = system: HCC-15
Outline: as §1

NCI-H1915 = system: NCI-H1915
Outline: as §1

LC-2-ad = system: LC-2-ad
Outline: as §1

UMC-11 = system: UMC-11
Outline: as §1

NCI-H2023 = system: NCI-H2023
Outline: as §1

EPLC-272H = system: EPLC-272H
Outline: as §1

LCLC-97TM1 = system: LCLC-97TM1
Outline: as §1

NCI-H1734 = system: NCI-H1734
Outline: as §1

NCI-H1792 = system: NCI-H1792
Outline: as §1

A-427 = system: A-427
Outline: as §1

NCI-H838 = system: NCI-H838
Outline: as §1

NCI-H2347 = system: NCI-H2347
Outline: as §1

NCI-H520 = system: NCI-H520
Outline: as §1

HCC-44 = system: HCC-44
Outline: as §1

SW 1573 = system: SW 1573
Outline: as §1

CN1CCN(CCOc2cc(OC3CCOCC3)c3c(Nc4c(Cl)ccc5c4OCO5)ncnc3c2)CC1 [Saracatinib] + CS(=O)(=O)N1CCN(Cc2cc3nc(-c4cccc5[nH]ncc45)nc(N4CCOCC4)c3s2)CC1 [Pictilisib] (partner 1 µM)
relative viability (COR-L 105; first compound 0.02 µM): 0.445 | relative viability (COR-L 105; first compound 0.2 µM): 0.331 | relative viability (COR-L 105; first compound 0.6325 µM): 0.361 | relative viability (COR-L 105; first compound 2 µM): 0.244 | relative viability (NCI-H1975; first compound 0.02 µM): 0.331 | relative viability (NCI-H1975; first compound 0.6325 µM): 0.298 | relative viability (NCI-H1975; first compound 2 µM): 0.174 | relative viability (CAL-12T; first compound 0.02 µM): 0.428 | relative viability (CAL-12T; first compound 0.2 µM): 0.399 | relative viability (CAL-12T; first compound 0.6325 µM): 0.491 | relative viability (CAL-12T; first compound 2 µM): 0.255 | relative viability (NCI-H1563; first compound 0.02 µM): 0.618 | relative viability (NCI-H1563; first compound 0.2 µM): 0.609 | relative viability (NCI-H1563; first compound 0.6325 µM): 0.63 | relative viability (NCI-H1563; first compound 2 µM): 0.606 | relative viability (NCI-H2405; first compound 0.02 µM): 0.441 | relative viability (NCI-H2405; first compound 0.2 µM): 0.366 | relative viability (NCI-H2405; first compound 0.6325 µM): 0.352 | relative viability (NCI-H2405; first compound 2 µM): 0.22 | relative viability (NCI-H1395; first compound 0.02 µM): 0.603 | relative viability (NCI-H1395; first compound 0.2 µM): 0.497 | relative viability (NCI-H1395; first compound 0.6325 µM): 0.672 | relative viability (NCI-H1395; first compound 2 µM): 0.528 | relative viability (HCC-15; first compound 0.02 µM): 0.797 | relative viability (HCC-15; first compound 0.2 µM): 0.585 | relative viability (HCC-15; first compound 0.6325 µM): 0.684 | relative viability (HCC-15; first compound 2 µM): 0.539 | relative viability (NCI-H1915; first compound 0.02 µM): 0.952 | relative viability (NCI-H1915; first compound 0.2 µM): 0.79 | relative viability (NCI-H1915; first compound 0.6325 µM): 0.928 | relative viability (NCI-H1915; first compound 2 µM): 0.767 | relative viability (LC-2-ad; first compound 0.02 µM): 0.578 | relative viability (LC-2-ad; first compound 0.6325 µM): 0.443 | relative viability (LC-2-ad; first compound 2 µM): 0.362 | relative viability (UMC-11; first compound 0.02 µM): 0.691 | relative viability (UMC-11; first compound 0.6325 µM): 0.836 | relative viability (UMC-11; first compound 2 µM): 0.679 | relative viability (NCI-H2023; first compound 0.02 µM): 0.267 | relative viability (NCI-H2023; first compound 0.2 µM): 0.317 | relative viability (NCI-H2023; first compound 0.6325 µM): 0.242 | relative viability (NCI-H2023; first compound 2 µM): 0.197 | relative viability (EPLC-272H; first compound 0.02 µM): 0.337 | relative viability (EPLC-272H; first compound 0.2 µM): 0.298 | relative viability (EPLC-272H; first compound 0.6325 µM): 0.388 | relative viability (EPLC-272H; first compound 2 µM): 0.232 | relative viability (LCLC-97TM1; first compound 0.02 µM): 0.231 | relative viability (LCLC-97TM1; first compound 0.2 µM): 0.12 | relative viability (LCLC-97TM1; first compound 0.6325 µM): 0.193 | relative viability (LCLC-97TM1; first compound 2 µM): 0.186 | relative viability (NCI-H1734; first compound 0.02 µM): 0.475 | relative viability (NCI-H1734; first compound 0.6325 µM): 0.435 | relative viability (NCI-H1734; first compound 2 µM): 0.387 | relative viability (NCI-H1792; first compound 0.02 µM): 0.293 | relative viability (NCI-H1792; first compound 0.2 µM): 0.239 | relative viability (NCI-H1792; first compound 0.6325 µM): 0.302 | relative viability (NCI-H1792; first compound 2 µM): 0.263 | relative viability (A-427; first compound 0.02 µM): 0.652 | relative viability (A-427; first compound 0.2 µM): 0.571 | relative viability (A-427; first compound 0.6325 µM): 0.767 | relative viability (A-427; first compound 2 µM): 0.616 | relative viability (NCI-H838; first compound 0.02 µM): 0.351 | relative viability (NCI-H838; first compound 0.2 µM): 0.447 | relative viability (NCI-H838; first compound 0.6325 µM): 0.344 | relative viability (NCI-H838; first compound 2 µM): 0.326 | relative viability (NCI-H2347; first compound 0.02 µM): 0.654 | relative viability (NCI-H2347; first compound 0.2 µM): 0.6 | relative viability (NCI-H2347; first compound 0.6325 µM): 0.772 | relative viability (NCI-H2347; first compound 2 µM): 0.527 | relative viability (NCI-H520; first compound 0.02 µM): 0.321 | relative viability (NCI-H520; first compound 0.2 µM): 0.263 | relative viability (NCI-H520; first compound 0.6325 µM): 0.273 | relative viability (NCI-H520; first compound 2 µM): 0.228 | relative viability (HCC-44; first compound 0.02 µM): 0.527 | relative viability (HCC-44; first compound 0.2 µM): 0.598 | relative viability (HCC-44; first compound 0.6325 µM): 0.854 | relative viability (HCC-44; first compound 2 µM): 0.442 | relative viability (SW 1573; first compound 0.02 µM): 0.47 | relative viability (SW 1573; first compound 0.2 µM): 0.451 | relative viability (SW 1573; first compound 0.6325 µM): 0.456 | relative viability (SW 1573; first compound 2 µM): 0.295

CN1CCN(CCOc2cc(OC3CCOCC3)c3c(Nc4c(Cl)ccc5c4OCO5)ncnc3c2)CC1 [Saracatinib] + C[C@]1(O)C[C@@H](c2nc(-c3ccc4ccc(-c5ccccc5)nc4c3)c3c(N)nccn32)C1 [Linsitinib] (partner 1 µM)
relative viability (COR-L 105; first compound 0.02 µM): 0.872 | relative viability (COR-L 105; first compound 0.2 µM): 1.02 | relative viability (COR-L 105; first compound 0.6325 µM): 0.63 | relative viability (COR-L 105; first compound 2 µM): 0.58 | relative viability (NCI-H1975; first compound 0.02 µM): 0.953 | relative viability (NCI-H1975; first compound 0.6325 µM): 0.95 | relative viability (NCI-H1975; first compound 2 µM): 0.478 | relative viability (CAL-12T; first compound 0.02 µM): 0.805 | relative viability (CAL-12T; first compound 0.2 µM): 0.776 | relative viability (CAL-12T; first compound 0.6325 µM): 0.863 | relative viability (CAL-12T; first compound 2 µM): 1.03 | relative viability (NCI-H1563; first compound 0.02 µM): 1.09 | relative viability (NCI-H1563; first compound 0.2 µM): 1.16 | relative viability (NCI-H1563; first compound 0.6325 µM): 1.05 | relative viability (NCI-H1563; first compound 2 µM): 0.891 | relative viability (NCI-H2405; first compound 0.02 µM): 0.87 | relative viability (NCI-H2405; first compound 0.2 µM): 0.829 | relative viability (NCI-H2405; first compound 0.6325 µM): 0.466 | relative viability (NCI-H2405; first compound 2 µM): 0.372 | relative viability (NCI-H1395; first compound 0.02 µM): 1.08 | relative viability (NCI-H1395; first compound 0.2 µM): 0.995 | relative viability (NCI-H1395; first compound 0.6325 µM): 1.27 | relative viability (NCI-H1395; first compound 2 µM): 0.876 | relative viability (HCC-15; first compound 0.02 µM): 0.911 | relative viability (HCC-15; first compound 0.2 µM): 0.84 | relative viability (HCC-15; first compound 0.6325 µM): 0.86 | relative viability (HCC-15; first compound 2 µM): 0.726 | relative viability (NCI-H1915; first compound 0.02 µM): 1.1 | relative viability (NCI-H1915; first compound 0.2 µM): 1.03 | relative viability (NCI-H1915; first compound 0.6325 µM): 1.07 | relative viability (NCI-H1915; first compound 2 µM): 1.07 | relative viability (LC-2-ad; first compound 0.02 µM): 0.971 | relative viability (LC-2-ad; first compound 0.6325 µM): 0.689 | relative viability (LC-2-ad; first compound 2 µM): 0.541 | relative viability (UMC-11; first compound 0.02 µM): 1.09 | relative viability (UMC-11; first compound 0.6325 µM): 0.956 | relative viability (UMC-11; first compound 2 µM): 0.8 | relative viability (NCI-H2023; first compound 0.02 µM): 0.771 | relative viability (NCI-H2023; first compound 0.2 µM): 0.588 | relative viability (NCI-H2023; first compound 0.6325 µM): 0.542 | relative viability (NCI-H2023; first compound 2 µM): 0.366 | relative viability (EPLC-272H; first compound 0.02 µM): 1.23 | relative viability (EPLC-272H; first compound 0.2 µM): 1.28 | relative viability (EPLC-272H; first compound 0.6325 µM): 1.12 | relative viability (EPLC-272H; first compound 2 µM): 1.07 | relative viability (LCLC-97TM1; first compound 0.02 µM): 0.17 | relative viability (LCLC-97TM1; first compound 0.2 µM): 0.127 | relative viability (LCLC-97TM1; first compound 0.6325 µM): 0.197 | relative viability (LCLC-97TM1; first compound 2 µM): 0.272 | relative viability (NCI-H1734; first compound 0.02 µM): 0.908 | relative viability (NCI-H1734; first compound 0.6325 µM): 0.713 | relative viability (NCI-H1734; first compound 2 µM): 0.751 | relative viability (NCI-H1792; first compound 0.02 µM): 0.533 | relative viability (NCI-H1792; first compound 0.2 µM): 0.374 | relative viability (NCI-H1792; first compound 0.6325 µM): 0.647 | relative viability (NCI-H1792; first compound 2 µM): 0.384 | relative viability (A-427; first compound 0.02 µM): 1.03 | relative viability (A-427; first compound 0.2 µM): 1.08 | relative viability (A-427; first compound 0.6325 µM): 1.12 | relative viability (A-427; first compound 2 µM): 1.11 | relative viability (NCI-H838; first compound 0.02 µM): 0.997 | relative viability (NCI-H838; first compound 0.2 µM): 0.871 | relative viability (NCI-H838; first compound 0.6325 µM): 0.749 | relative viability (NCI-H838; first compound 2 µM): 0.838 | relative viability (NCI-H2347; first compound 0.02 µM): 0.916 | relative viability (NCI-H2347; first compound 0.2 µM): 0.902 | relative viability (NCI-H2347; first compound 0.6325 µM): 1.13 | relative viability (NCI-H2347; first compound 2 µM): 0.936 | relative viability (NCI-H520; first compound 0.02 µM): 0.911 | relative viability (NCI-H520; first compound 0.2 µM): 0.786 | relative viability (NCI-H520; first compound 0.6325 µM): 0.825 | relative viability (NCI-H520; first compound 2 µM): 0.504 | relative viability (HCC-44; first compound 0.02 µM): 0.729 | relative viability (HCC-44; first compound 0.2 µM): 0.51 | relative viability (HCC-44; first compound 0.6325 µM): 0.823 | relative viability (HCC-44; first compound 2 µM): 0.717 | relative viability (SW 1573; first compound 0.02 µM): 0.846 | relative viability (SW 1573; first compound 0.2 µM): 0.673 | relative viability (SW 1573; first compound 0.6325 µM): 0.699 | relative viability (SW 1573; first compound 2 µM): 0.64
